Where two headings read alike, the source gives them in different places.
What was measured:
[1] = logP determination by HPLC on a reversed-phase column (C 18), EEC Directive 79/831 Annex V.A8; type: physicochemical; settings: reversed-phase HPLC column (C 18), pH 2.3, HPLC
Description: The logp values given in the tables and Preparation Examples above are determined in accordance with EEC Directive 79/831 Annex V .A8 by HPLC (High Performance Liquid Chromatography) on a reversed-phase column (C 18). Temperature: 43° C.
The determination is carried out in the acidic range at pH 2.3 using the mobile phases 0.1% aqueous phosphoric acid and acetonitrile; linear gradient from 10% acetonitrile to 90% acetonitrile.
Calibration is carried out using unbranched alkan-2-ones (of 3 to 16 carbon atoms) with known logp values (determination of the logp values by the retention times using linear interpolation between two successive alkanones).

[2] = acidic range pH 2.3, amides of the formula (II), read-out: logP*
[3] = pH 2.3, read-out: log P (pH 2.3)
[4] = acidic range pH 2.3, pyrrolines of the formula (I), read-out: logP*

| SMILES | chromatographic logP [1, 2] | chromatographic logP [1, 3] | melting point | chromatographic logP ([1]; acidic range pH 2.3, chalcones of the formula (VI), read-out: logP*) | chromatographic logP ([1]; acidic range pH 2.3, cyclopropanes of the formula (III), read-out: logP*) | chromatographic logP [1, 4] |
| --- | --- | --- | --- | --- | --- | --- |
| CC(=O)NC(CCC(=O)c1c(F)cccc1F)c1ccc(Br)cc1 (centres unmarked) [II-1, N-[1-(4-bromophenyl)-4-(2,6-difluorophenyl)-4-oxobutyl]acetamide] | 2.67 | 2.67 | 162 to 163 °C |  |  |  |
| O=C(c1c(F)cccc1F)C1CC1c1ccc(Br)cc1 (centres unmarked) [III-1, [2-(4-bromophenyl)cyclopropyl](2,6-difluoro-phenyl)methanone] |  | 4.24 | 64 to 65 °C |  | 4.22 |  |
| Fc1cccc(F)c1C1=NC(c2ccc(Br)cc2)CC1 (centres unmarked) [Example I-1, 2-(4-bromophenyl)-5-(2,6-difluorophenyl)-3,4-dihydro-2H-pyrrole] |  | 2.74 | 48 °C |  |  | 2.77 |

Results, then the compound that gave them:

| chromatographic logP [1, 2] | chromatographic logP [1, 3] | melting point | chromatographic logP ([1]; acidic range pH 2.3, chalcones of the formula (VI), read-out: logP*) | chromatographic logP ([1]; acidic range pH 2.3, cyclopropanes of the formula (III), read-out: logP*) | chromatographic logP [1, 4] | SMILES |
| --- | --- | --- | --- | --- | --- | --- |
| 3.79 |  |  |  |  |  | CC(=O)NC(CCC(=O)c1c(F)cccc1F)c1ccc(-c2ccc(OC(F)(F)F)cc2)cc1 (centres unmarked) [II-3] |
|  | 3.98 | 71 °C | 3.98 |  |  | O=C(/C=C/c1ccc(Br)cc1)c1c(F)cccc1F [VI-1, (2E)-3-(4-bromophenyl)-1-(2,6-difluorophenyl)-2-propen-1-one] |
| 2.59 | 2.59 |  |  |  |  | CC(=O)NC(CCC(=O)c1c(F)cccc1F)c1ccc(Cl)cc1 (centres unmarked) [II-2, N-[1-(4-chlorophenyl)-4-(2,6-difluorophenyl)-4-oxobutyl]acetamide] |
|  | 2.59 |  |  |  | 2.59 | Fc1cccc(F)c1C1=NC(c2ccc(Cl)cc2)CC1 (centres unmarked) [Example I-2, 2-(4-chlorophenyl)-5-(2,6-difluorophenyl)-3,4-dihydro-2H-pyrrole] |

— US20040054194A1, “Method for producing 1-pyrrolines” (priority 2003, published 2004)
